Read-outs that look alike come from different tables or passages of the source.
Tests used:
EPCs [1] = experiment: EPC culture and enumeration (AcLDL uptake / UEA-1 dual positive cells); type: cell-based, human
Excerpt: EPCs were isolated and cultured as previously described (17). Briefly, peripheral blood mononuclear cells (PBMCs) were isolated by ficoll gradient centrifugation from either healthy young volunteers or patients with angiographically verified CAD. Blood was collected by venipuncture and anticoagulated with EDTA. 5×10^6 PBMCs were then washed and resuspended in EGM-2 media (Clonetics) and plated on fibronectin coated plates. Media were supplemented with either LiCl (Sigma), GSKI VIII (Calbiochem; Cat. No. 361549; AR-A014418:N-(4-Methoxybenzyl)-N′-(5-nitro-1,3-thiazol-2-yl)urea), or vehicle (DMSO) at the indicated concentrations.
GSK inhibitor VIII is a GSK-3β isoform specific inhibitor derived from a class of compounds shown to inhibit GSK-3 both in vitro (54) and in vivo (53). After 96 hours of culture, non-adherent cells were removed and the plates washed three times with buffered wash solution. Cells were then incubated for another 72 hours before being labeling, enumeration, or being used in various assays.
For the task of enumeration EPCs were arbitrarily defined as cells dually positive for AcLDL uptake and ulex europeus agglutinin I (UEAI) binding. […] Plates of cells were again washed, and incubated for a DAPI nuclear counterstain before a coverslip was applied to the well and double positive cells were counted in 6 random high power fields (×200 magnification). […]

β-catenin = β-catenin nuclear levels by western blot of EPC nuclear extracts; type: cell-based, human; conditions: EPCs cultured in media supplemented with GSKI (2×) vs control media
Method: β-catenin nuclear levels were assayed by western blot of nuclear extracts from both control and treated EPCs. Briefly, nuclei were separated by differential centrifugation and total nuclear protein was extracted. Protein was then run on an acrylamide gel and transferred onto a PVDF membrane overnight. After transfer, the membrane was blocked for one hour in 5% skim milk powder in 0.1% Tween-20 in Tris buffered saline. This was then incubated for 48 hours with primary antibody of a monoclonal anti-phospho-β-catenin (Cell Signaling Technologies) diluted 1:1000 in 5% skim milk powder in TBS-T. After incubation the membrane was then washed 3 times for 5 minutes each with TBS-T. The membrane was then incubated in secondary antibody of goat anti rabbit IgG (H+ L) conjugated with horseradish peroxidase (1:5000 in TBS-T) for 24 hours. The membrane was washed and quantitated using ECL Plus (Amersham Biosciences).

EPCs [2] = experiment: EPC cell survival assay; type: cell-based, human; conditions: both healthy controls and patients with CAD, n=6
Method: Day seven EPCs were used for all experiments unless otherwise indicated. For the cell survival assay, six high power fields were enumerated on day 7 for each individual. Subsequently, cells were washed and the media changed every four days after which cells were again enumerated. Data are expressed as a percentage of initial cells present on day 7. For apoptosis studies cells from patients and healthy controls were cultured for 7 days. Cells were then lifted and recoated at a density of 2×10^6 mature EPCs per well. The cells were then allowed to incubate for an additional four days prior to being lifted with EDTA supplementation of the media and gentle agitation. Cells were pelleted and resuspended in HBSS. Prior to analysis by flow cytometry, 10 μL of propidium iodide was added to the cell suspension. EPCs were identified by uptake of acLDL-alexa488 (Invitrogen) and UEA-1 FITC labeling in separate experiments. Uptake of propidium iodide identified apoptotic cells. A total of ten thousand events was analyzed and the data expressed as a percentage of total EPCs being apoptotic. All experiments were conducted on a Beckman Coulter Cytomics FC 500 cytometer.

EPCs [3] = experiment: EPC apoptosis by propidium iodide flow cytometry; type: cell-based, human; conditions: 2×GSKI; EPCs of healthy controls and CAD patients
VEGF = VEGF secretion by EPCs (ELISA); type: cell-based, human; conditions: 24 hours in VEGF free media
EPCs [4] = experiment: EPC fibronectin adhesion assay; type: cell-based, human
Method: Day 7 EPCs were detached from their fibronectin coated plates by incubation with 0.5 mmol EDTA. Cells were pelleted, resuspended in EGM-2 and enumerated. Subsequently, 100,000 EPCs were plated in 24-well fibronectin coated plates and incubated for 30 minutes. After, the wells were washed three times with HBSS and the adherent cells labeled and six random high power fields enumerated. Blocking experiments were performed using a specific VLA-4 antibody (MAB169832, Chemicon) at a concentration of 10 ug/mL and allowing cells to incubate for 2 hours.

α-integrin subunits 1-5 = experiment: Quantitative PCR of α-integrin subunits in EPCs; type: cell-based, human
EPCs [5] = experiment: In vitro prediction of maximal tolerated dose of GSKI in EPC culture; type: cell-based, human; conditions: multiples of IC50 concentration in EGM-2; 1× to 100× tested
Method: In accordance with another aspect of the present invention, local delivery of inhibitor at the site of arterial injury represents an alternative strategy for enhancing arterial repair and mitigating neointima formation. GSKI coated stents (GCSs) were manufactured for use in a rabbit carotid model of stent neointima formation as previously described (27). Prior to implanting these GCSs, in vitro experiments were performed in order to predict the maximal tolerated dose of GSKI we could deliver in vivo. EPCs were cultured in EGM-2 supplemented with 1×, 2×, 5×, 10×, 20×, 30×, 40×, 50×, and 100× concentrations of the GSKI. […] To manufacture the GCSs, bare metal stents were coated with muco-gel supplemented with DMSO (vehicle for GSKI) or muco-gel containing 20×GSKI as previously described (27). Once coated, stents were allowed to dry in a sterile environment and packaged aseptically prior to delivery. Stents were deployed in New Zealand white rabbit carotid arteries according to a previous protocol and the stent neointima was subjected to quantitative histomophometry 14 days post-stent deployment (22). […] Despite rapid re-endothelialization of GCSs, a neointima formed in both groups but was 50% smaller in area in GCSs vs. control stents. […]

GSK-3β = GSK-3β (Homo sapiens, UniProt P49841); conditions: cited from earlier work
GSK-3β, sequence (P49841 whole entry, species assumed): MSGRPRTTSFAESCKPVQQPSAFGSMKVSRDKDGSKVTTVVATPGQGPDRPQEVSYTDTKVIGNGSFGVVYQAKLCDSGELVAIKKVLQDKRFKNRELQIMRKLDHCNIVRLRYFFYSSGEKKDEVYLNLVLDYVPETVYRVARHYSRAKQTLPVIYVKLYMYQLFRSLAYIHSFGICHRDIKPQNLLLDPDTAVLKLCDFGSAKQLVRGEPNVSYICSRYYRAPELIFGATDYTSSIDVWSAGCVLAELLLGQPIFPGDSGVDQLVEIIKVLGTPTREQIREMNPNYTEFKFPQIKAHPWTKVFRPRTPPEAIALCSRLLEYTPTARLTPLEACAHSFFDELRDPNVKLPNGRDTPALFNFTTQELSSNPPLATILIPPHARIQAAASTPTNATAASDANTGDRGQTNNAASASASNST

SMILES | EPC yield (EPCs [1]) | nuclear b-catenin levels (β-catenin) | EPC survival (long term viability) (EPCs [2]) | percentage of apoptotic cells (EPCs [3]) | VEGF secretion by mature EPCs (VEGF) | EPC adherence, healthy controls (EPCs [4]; EPCs from healthy controls, fibronectin, 30 minutes) | increase in EPC adherence, patients cells (EPCs [4]; EPCs from patients with CAD, fibronectin, 30 minutes) | number of adherent cells after 30 minutes (EPCs [4]; VLA4 blocking experiment, without antibody) | mRNA levels of α-1, -2, -3 and -5 integrin subunits (α-integrin subunits 1-5; GSKI 1× and 2× vs control) | mRNA of α-4 integrin subunit (α-integrin subunits 1-5; both concentrations of the GSKI (1×, 2×)) | dose resulting in increased EPC death and attenuated function (EPCs [5]) | EPC yield (EPCs [1]; 7 days culture, EPCs from both healthy controls and CAD patients, GSKI at 104 nm and 208 nm) | doses in which LiCl inhibits GSK-3β (GSK-3β)
COc1ccc(CNC(=O)Nc2ncc([N+](=O)[O-])s2)cc1 [GSKI, N-(4-Methoxybenzyl)-N′-(5-nitro-1,3-thiazol-2-yl)urea] | increase | increased levels | significantly improves long term viability | reduction | increase | dose dependent increase | ~4 fold | increased | No difference | upregulation | ≥ 30 × |  | 
[Cl-].[Li+] [LiCl, lithium chloride] |  |  |  |  |  |  |  |  |  |  |  | increases | 10 to 20 mM
